Results from US10544167B2, “Compounds as stimuli-responsive probes, methods and applications thereof” (JAWAHARLAL NEHRU CENTRE FOR ADVANCED SCIENTIFIC RESEARCH, priority 2015, dated 2020).

What was measured:
H2O2 in HeLa cells [1] = assay: Confocal fluorescence imaging of HeLa cells treated with exogenous H2O2; assay type: cell-based, Human; conditions: QCy-BA 5 μM 30 minutes, then H2O2 100 μM about 15 minutes
Description: An Immunofluorescence studies are carried out on HeLa cells to validate exogenous and endogenous detection of H2O2 by QCy-BA. The HeLa cells (10,000 cells) are grown on cover slips. These cells are treated with 5 μM concentration of QCy-BA for 30 minutes. The cells are washed with DPBS for several times to remove the excesses of QCy-BA. The cells are treated with H2O2 (100 μM) for 30 minutes. These samples are subjected to confocal microscopy for immunefluorescence images.
Remarkable selectivity of QCy-BA towards H2O2 and its detection through DNA-assisted switch-on NIR fluorescence led to evaluation of the uptake and application of the probe to detect H2O2 in cells. For this purpose, confocal fluorescence imaging of HeLa cells treated with H2O2 (exogenous) is carried out. First, the HeLa cells are incubated with QCy-BA (5 μM) for about 30 minutes and imaged under a confocal microscope. […] HeLa cells containing QCy-BA are then treated with H2O2 (100 μM) for about 15 minutes, after which the cells are again scanned under a confocal microscope.

[2] = Fluorescence response of QCy-BA to various reactive oxygen species (selectivity); conditions: QCy-BA 5 μM; superoxide, hydroxyl radical, tert-butoxy radical, hypochlorite, 100 μM each
Description: (§1) Further, concentration-dependent fluorescence study on slicing of the phenyl boronic acid functionality of QCy-BA (5 μM) in response to sequential addition of H2O2 (5 to 100 μM) is performed. The fluorescence intensity of QCy-BA at 565 nm is decreased in response to added H2O2 in the concentration range of 5 to 50 μM and subsequently reached saturation at 100 μM. A linear relationship (R^2=0.9877) is observed with increasing concentration of H2O2 in the concentration range of 5-50 JAM. Based on 3a/slope the limit of detection (LOD) of H2O2, using the decrease in fluorescence of QCy-BA at 565 nm, is found to be 5.3 μM (FIG. 7). H2O2 is one of the many ROS present in the biological system and it is necessary to test the probe QCy-BA against all of them to assess the selectivity and specificity. Therefore, the response of QCy-BA towards H2O2 (100 μM) in the presence of other ROS (100 μM) is examined, including tertbutyl hydroperoxide (TBHP), superoxide (O2^−), hydroxyl radical (HO.), tert-butoxy radical (^tBuO.) and hypochlorite (OCl^−).

[3] = test system: H2O2 produced by EGF/Nox pathway in HeLa cells; assay: EGF produced H2O2 detection in HeLa cells by flow cytometry (FACS); assay type: cell-based, Human; conditions: EGF 500 ng/mL about 40 minutes, QCy-BA 5 μM 30 minutes
Description: To determine the EGF produced ROS in cells by QCy-BA. In a 12-well plate, […] HeLa cells are plated in each well and incubated for 24 hour. These cells are serum deprived for 1 h. Cells are incubated with EGF (500 ng/mL) for 40 minutes and further treated with NAC (8 mM) for 1 hour. Then cells are treated with QCy-BA (5 μM) for 30 minutes. After 30 minutes incubation of cells with QCy-BA, cells are washed with DPBS (Dulbecco's Phosphate Buffer Saline) to remove the excesses of QCy-BA. These cells are harvested after trypsinization. The samples are subjected to FACS.
Further, the study is extended to visualize the in situ H2O2 generation by a known signaling pathway in live cells. Well-known epidermal growth factor (EGF) binding to epidermal growth factor receptor (EGFR) signaling pathway is selected, which stimulates the production of H2O2 in cells by activating the NOX/PI3K pathways. In this experiment, live HeLa cells are incubated with the epidermal growth factor (EGF) (500 ng/mL) for about 40 minutes under physiological conditions (37° C., pH=7.4).

[4] = Detection limit of H2O2 in presence of QCy-BA (concentration-dependent fluorescence, microplate reader); conditions: QCy-BA 5 μM, PBS buffer, excitation 400 nm, 3σ/slope
Description: Concentration dependent studies are performed using microplate reader. In the well-plates, first QCy-BA (5 μM) in buffer solution is taken, then increasing concentration of H2O2 from 0 to 100 μM is added. Upon excitation at 400 nm, the emission at […] as function time after addition of H2O2 is collected. The fluorescence intensity at […] is plotted as a function of concentration of hydrogen peroxide and each experiment is done in triplicates.
as §1, with “Therefore, the response of QCy-BA towards H2O2 (100 μM) in the presence of other ROS (100 μM) is examined, including tertbutyl hydroperoxide (TBHP), superoxide (O2^−), hydroxyl radical (HO.), tert-butoxy radical (^tBuO.) and hypochlorite (OCl^−).” left out

H2O2 in HeLa cells [5] = assay: H2O2 detection after genotoxic stress (BrdU/doxorubicin) in HeLa cells, fluorescence plate reader; assay type: cell-based, Human; conditions: for fold increase in fluorescence compared to control cells: BrdU (100 μM), about 48 hours
Description: (§2) The cells are incubated with QCy-BA (5 μM) for 30 minutes in dark, washed with PBS and analysed to detect QCy-BA dye fluorescence using Infinite M1000 Pro, Tecan, Austria). Wavelengths used for excitation and emission for QCy-BA dye is 400 nm/650 nm. In all ROS measurement assays are done using plate reader and after fluorescence measurements, cells are washed, trypsinized and counted to estimate fluorescence per cell recordings.
To measure ROS generated concomitant to the dose of the DNA damage, HeLa cells are treated with increasing doses (0 to 200 μM) of 5-bromo-2′-deoxyuridine (BrdU). BrdU is a thymidine analog, which gets directly incorporated into DNA and triggers DNA damage response. From previous studies in the art it is known that 48 hours of treatment with BrdU (100 μM) or another DNA damaging agent, doxorubicin at a concentration of 0.1 μM can lead to the induction of cellular senescence.

HeLa cells = assay: Cytotoxicity on HeLa cells (MTT assay); assay type: cell-based, Human
Description: MTT [(3-(4,5-dimethylthiozol-2yl)-2,5-diphenyltetrazolium bromide] assay is carried out with probe QCy-BA on HeLa cells to determine the cytotoxicity effect. In a tissue cultured 96-well plate, 10,000 cells per well are plated and incubated for 24 h, for cells to attach. After completion of 24 h incubation, the attached and healthy cells are treated with various concentrations (25 μM, 12.5 μM, 6.25 μM, 3.125 μM and 0 μM) of probe QCy-BA and further incubated for 24 h. All the treatments are carried out in triplicates. The required concentrations of QCy-BA are made from stock solution in 0.2% DMEM. Stock solution of probe QCy-BA (1 mg/mL) is made in water. Four hours before stipulated time of experiment, MTT-solution (5 mg/mL of 20 μL) is added in each well and incubated to form formazan crystals. The culture medium is completely removed by 1 mL pipette and 200 μL of DMSO is added to dissolve formazan crystals. The purple colored formazan is estimated by determining absorbance at 590 nm with the help of spectrophotometer (Bio-RAD model 1680, Microplate reader). The results are shown in bar graphs (concentration of QCy-BA vs % cell viability).
In order to check the cytotoxicity of probe QCy-BA cell viability assay is performed in HeLa cells. Upon incubation with QCy-BA, more than 80% of the cells are viable even at 25 μM concentration after about 24 hours (FIG. 15).

H2O2 in MRC5 cells = assay: H2O2 detection after genotoxic stress (BrdU/doxorubicin) in primary MRC5 cells, fluorescence plate reader; assay type: cell-based, human; conditions: MRC5, various doses of BrdU and doxorubicin 0.1 μM, 72 h; probe 5 μM
Description: as §2
Further, similar experiments are performed in primary MRC5 cells, which are human lung primary fibroblasts. To induce DNA damage, MRC5 cells are similarly treated with various doses of BrdU and doxorubicin (0.1 μM) for 72 h. […] Therefore, above results reveal that QCy-BA is a versatile probe to monitor the elevated levels of H2O2 in both primary and cancer cells in senescence state.

[6] = Time-dependent fluorescence study of release kinetics of QCy-BA to QCy-DT in response to H2O2 in presence of Drew-AT; conditions: QCy-BA 2 μM, Drew-AT 2 μM
Description: The time-dependent fluorescence study is carried out to evaluate the release kinetics of QCy-BA (2 μM) to QCy-DT in response to H2O2 (100 μM) stimulus, in presence of Drew-AT duplex. The change in fluorescence intensities at […] and 650 nm corresponding to emission maxima (Emax) of QCy-BA and QCy-DT in presence of Drew-AT is monitored.
The calculation of kinetics parameter using pseudo-first-order conditions for conversion of QCy-BA (2 μM) to QCy-DT in the presence of H2O2 (1 mM) and Drew-AT (2 μM) gave the rate constant of kobs=1.0×10^−3 s^−1 (FIG. 10).

[7] = Time-dependent NMR analysis of H2O2 triggered slicing of phenyl boronic acid of QCy-BA; conditions: QCy-BA 2 mM in D2O, H2O2 10 mM, 1H NMR
Description: In a preliminary study, time-dependent NMR spectroscopy analysis of QCy-BA is carried out in the presence of H2O2 to assess the stimuli-responsive slicing of phenyl boronic acid functionality (FIG. 1(a)).
The chemical shifts of O—CH2, aromatic region of QCy-BA and appearance of possible new peaks for p-quinonemethide (sliced byproduct corresponding to phenyl boronic acid functionality) upon sequential addition of H2O2 is monitored. […] The peaks at 5.20 ppm and aromatic region 6.5-7.0 ppm correspond to the newly-formed exocyclic C—Hb protons of p-quinone-methide and QCy-DT moieties, respectively. After about 2 hours, a single peak at 5.20 ppm and prominent new peaks at 6.5-7.0 ppm are observed, indicating the complete conversion of QCy-BA to QCy-DT and p-quinonemethide (FIG. 1(b)). This study confirmed the H2O2 stimulus-triggered slicing of phenyl boronic acid functionality of QCy-BA to release QCy-DT, a DNA minor groove binding probe. It is observed that the color of the solution changes from yellow to brown after the addition of H2O2 to QCy-BA, a naked eye detection of the formation of p-quinone-methide and QCy-DT (FIG. 1(c)).

H2O2 in HeLa cells [8] = assay: Exogenous and endogenous detection of H2O2 in HeLa cells by flow cytometry (FACS); assay type: cell-based, Human; conditions: probe about 5 μM, about 30 minutes, absence of NAC
Description: In each well, […] cells are plated in 12-well tissue culture plates and incubated for 24 hours. These cells are serum deprived for 1 h. In addition, the serum deprived cells of 6-well are treated with N-acetyl-L-cysteine (NAC) (8 mM) solution and incubated for 1 hour and cells are treated with probe QCy-BA (5 μM) and incubated for 30 minutes. After 30 minutes incubation, the cells are washed with DPBS (Dulbecco's Phosphate buffer saline) to remove the excesses of QCy-BA. These cells are harvested after trypsinization. Exogenously, H2O2 (100 μM) is added to QCy-BA and NAC+QCy-BA treated cells and incubated for 15 min. These samples are subjected to FACS analysis.
NMR, photophysical study. […] Next. QCy-BA for probing cellular (physiologically generated) H2O2 levels in live cells is employed. HeLa cells are incubated with QCy-BA (about 5 μM) for about 30 minutes in the absence and presence of N-acetyl-L-cysteine (NAC), a well-known H2O2 scavenger. […] Thus, probe QCy-BA is also capable of detecting the cellular H2O2 levels in live cells.

| SMILES | fluorescence in HeLa cells after H2O2 (H2O2 in HeLa cells [1]) | effect of other ROS on the probe response (fluorescence at 565 nm) [2] | fluorescence intensity in the PerCP region after EGF stimulation [3] | limit of detection (LOD) of H2O2, using the decrease in fluorescence of QCy-BA at 565 nm [4] [µM] | fold increase in fluorescence compared to control cells (H2O2 in HeLa cells [5]) [fold] | viable cells (HeLa cells; 25 μM, about 24 hours) | toxicity (in words) (HeLa cells; standard working concentration about 5 μM, 24 hours) | fluorescence compared to control cells (H2O2 in MRC5 cells) | time to saturation of emission intensity at 650 nm ([6]; H2O2 100 μM, excitation 564 nm) [h] | rate constant kobs for conversion of QCy-BA to QCy-DT ([6]; pseudo-first-order, H2O2 1 mM, emission 650 nm) [s⁻¹] | time to complete conversion of QCy-BA to QCy-DT and p-quinonemethide [7] | mean fluorescence intensity of PerCP compared to control cells (H2O2 in HeLa cells [8]) | fold change of fluorescence (summary for DCFDA) (H2O2 in HeLa cells [5]; BrdU 100 μM and doxorubicin 0.1 μM, 48 h) |
| --- | --- | --- | --- | --- | --- | --- | --- | --- | --- | --- | --- | --- | --- |
| C[n+]1c(/C=C/c2ccc(OCc3ccc(B(O)O)cc3)c(/C=C/c3sc4ccccc4[n+]3C)c2)sc2ccccc21.[I-].[I-] [QCy-BA, 4-((N, N-dimethyl, 2,4-bis((E)-2-(benzo[d]thiazol-2-ylinium)vinyl)phenoxy)methyl)phenylboronic acid] | strong fluorescence in the red channel with maximum localization in the cell nucleus | very minimal or no effect | strong fluorescence intensity | 5.3 | ~10 | more than 80% | non-toxicity | increase in fluorescence compared to control cells in a dose-dependent manner | ≥ 4 | 0.001 | about 2 hours | increase in mean fluorescence intensity of PerCP | – |
| CC(=O)Oc1cc2c(cc1Cl)C(c1ccccc1C(=O)O)c1cc(Cl)c(OC(C)=O)cc1O2 [DCFDA, 2′,7′-dichlorofluorescin diacetate] | – | – | – | – | 3 | – | – | – | – | – | – | – | 3-4 fold |
